Measured values reported in patent publication US20230383261A1, “HEPATOCYTE-LIKE CELLS” (Sana Biotechnology, Inc., priority 2020, published 2023).

Experiments:
Type in all cases: cell-based, human
[1] = tested on: CYP3A4 activity in hepatocyte-like cells; test: CYP3A4 enzyme activity assay of hepatocyte maturation, media with or without HGF; settings: absence of HGF in the culture media after the first 14 days of 2D differentiation, vs media containing HGF
Description: Mature hepatocyte-like cells were differentiated from human pluripotent stem cells using a 2D differentiation protocol for the first 14 days of differentiation, and then the cells were cultured in media lacking recombinant HGF. At day 14, hepatocytes at the hepatic endoderm stage were dissociated and seeded into these plates in fully supplemented HepatoZYME-SFM media. 24 hours later the cells were cultured and maintained in media lacking recombinant HGF. Hepatocyte maturation was determined using a CYP3A4 enzyme activity assay.

[2] = tested on: hepatocyte maturation genes and urea cycle genes in hepatocyte-like cells; test: Taqman qPCR gene expression, 3D differentiation protocol with or without forskolin; settings: 10 μM forskolin days 28 to 35, vs untreated
Description: In the process, the pluripotent stem cells differentiate through different stages including a definitive endoderm stage, an anterior definitive endoderm stage, a foregut endoderm stage, a hepatic endoderm stage, an immature hepatocyte stage, and a mature hepatocyte stage. […] All pluripotent cell lines robustly differentiated in the endoderm lineage in the 3D format, with all cell lines achieving a target efficiency of 90% CXCR4 expressing cells. Gene expression analysis was performed on hepatocyte-like cells produced by either (i) a 3D differentiation protocol or (ii) a 3D differentiation protocol with the addition of 10 μM forskolin from days 28 to day 35. Duplicate RNA samples were isolated at selected time point of the differentiation and gene expression was analyzed by Taqman qPCR.

hepatocyte-like cells [3] = test: ureagenesis after ammonia challenge (Urea Assay Kit); settings: day 35, seven-day forskolin
Description: Human iPSCs were differentiated to hepatocyte-like cells essentially as described in […] et al., Nature Prot. 8(2):430-437 (2013) (Protocol A) or Blackford et al., Stem Cells Transl Med. 8(2):124-137 (2019) (Protocol B) with the following modifications: cells were maintained in the final medium until a total culture time of 35 days and HepatoZYME basal medium was substituted in Protocol B starting at day 8. Forskolin was added to the final medium at a concentration of […] on day 21 (Protocol A) or day 28 (Protocols A and B). Expression of hepatocyte and urea cycle genes was measured by qPCR and/or fluorescent Western blot analysis. Ureagenesis of the cells was assayed using Urea Assay Kit (BioChain). Ureagenesis activity was measured in day 35 cells from Protocol A and Protocol B following seven-day treatment with forskolin, following challenge of the hepatocyte-like cells with 0-16 mM ammonia. […] For Protocol A, ureagenesis activity peaked at stimulation with 5 mM ammonia treatment at about 20 nmol/min/10^6 cells, and levels were observed higher than those seen using primary human hepatocytes. For […], ureagenesis activity peaked at stimulation with 10 mM ammonia at a level similar to primary human hepatocytes, about 3 nmol/min/10^6 cells.

[4] = tested on: hepatocyte-specific genes and urea cycle enzyme genes; test: gene expression in differentiation methods A, B and C with forskolin; settings: forskolin at days 21-35 or 30-35 (3D) or days 28-35 (2D)
Description: This example provides urea cycle gene expression of hepatocyte-like cells differentiated using three different methods, such as a 3D differentiation method with forskolin treatment at days 21-35 (method A), a 3D differentiation method with forskolin treatment at days 30-35 (method B), and a 2D differentiation method with forskolin treatment at days 28-35 (method C). The expression of the following genes were measured: alpha fetoprotein (AFP), albumin (ALB), arginase 1 (ARG1), asialoglycoprotein receptor 1 (ASGR1), agininosuccinate lyase (ASL), argininosuccinate synthase 1 (ASS1), carbamoyl-phosphate synthase 1 (CPS1), glucose-6-phosphatase (G6PC), hepatocyte nuclear factor 4 alpha (HNF4a), keratin type I cytoskeletal 18 (KRT18), […] (NAGS), ornithine transcarbamylase (OTC), and SOX9. Expression of cardiac-specific markers NKX2.5 and TNNT2 were used as a negative expression control.
In this study, forskolin treatment was included at days 21-35 of the 3D hepatocyte differentiation process outlined above, at days 30-35 of the 3D hepatocyte differentiation process outlined above, or days 28-35 of the 2D hepatocyte differentiation process outlined above. Gene expression of numerous hepatocyte and urea cycle markers was measured at different time points.

[5] = tested on: hepatocyte and urea cycle genes in hepatocyte-like cells; test: qPCR expression of hepatocyte and urea cycle genes in iPSC-derived hepatocyte-like cells (Protocols A and B)
Description: Human iPSCs were differentiated to hepatocyte-like cells essentially as described in […] et al., Nature Prot. 8(2):430-437 (2013) (Protocol A) or Blackford et al., Stem Cells Transl Med. 8(2):124-137 (2019) (Protocol B) with the following modifications: cells were maintained in the final medium until a total culture time of 35 days and HepatoZYME basal medium was substituted in Protocol B starting at day 8. Forskolin was added to the final medium at a concentration of […] on day 21 (Protocol A) or day 28 (Protocols A and B). Expression of hepatocyte and urea cycle genes was measured by qPCR and/or fluorescent Western blot analysis. Ureagenesis of the cells was assayed using Urea Assay Kit (BioChain).

hepatocyte-like cells [6] = test: urea production assay at day 35, 2D differentiation with forskolin; settings: forskolin about 5 μM to about 10 μM after the first 26 days, read at day 35
Description: Mature hepatocyte-like cells were differentiated from human pluripotent stem cells using a 2D differentiation protocol for the first 26 days of differentiation, and then the immature hepatocyte-like cells were cultured in media containing forskolin (ranging from about 5 μM to about 10 μM). At day 35, the activity for the hepatocytes was determined using a urea production assay.

hPSC-Heps spheroids = settings: for ammonia detoxification: media containing ammonia; for ammonia detoxification with excess arginine: media containing ammonia and arginine
Description: Human pluripotent stem cell-derived hepatocytes (hPSC-Heps) were obtained after 21 days of differentiation using a 2D adherent protocol. At day 21 the hPSC-Heps were aggregated into spheroids, and then encapsulated within alginate 48 hours later. The spheroids including the alginate encapsulated spheroids were cultured for 14 days in either vitamin K1, vitamin K2 MK4, […], vitamin E, or a combination of all. The spheroids were cultured at a concentration of about 1×10^6 encapsulated cells/ml for the culture period.

Compound: HGF: recombinant hepatocyte growth factor in culture media
- hepatocyte maturation (CYP3A4 enzyme activity) [1]: enhanced hepatocyte maturation

Compound: C=C[C@@]1(C)CC(=O)[C@]2(O)[C@@]3(C)[C@@H](O)CCC(C)(C)[C@@H]3[C@H](O)[C@H](OC(C)=O)[C@@]2(C)O1 [forskolin]
- expression of hepatocyte maturation genes and urea cycle genes [2]: increases in expression
- peak ureagenesis activity (hepatocyte-like cells [3]; Protocol A, stimulation with 5 mM ammonia, higher than primary human hepatocytes): about 20 nmol/min/10^6 cells
- peak ureagenesis activity (hepatocyte-like cells [3]; printed Protocol A (second mention), stimulation with 10 mM ammonia, similar to primary human hepatocytes): about 3 nmol/min/10^6 cells
- expression of hepatocyte-specific and urea cycle enzyme genes including ALB, ARG1, ASGR1, ASL, CPS1, G6PC, HNF4a and/or NAGS [4]: increased expression
- increase in urea cycle gene CPS1 ([5]; Protocol A, forskolin 10 mM at days 21-28, vs cells without forskolin, qPCR): 5-8 fold
- expression of hepatocyte-like cell genes (HNF4a, AFP, ALB, ASGR1) ([5]; Protocol A, forskolin 10 mM in medium at days 21-28, vs cells without forskolin, qPCR): no significant effect
- enhancement of hepatocyte-like cell gene (HNF4a, ALB, ASGR1) expression ([5]; Protocol B, forskolin 10 mM at days 28-35, read at day 35, vs cells without forskolin): 2-4 fold
- ureagenesis activity of the differentiated mature hepatocyte (hepatocyte-like cells [6]): enhanced the ureagenesis activity

Compound: CC(C)=CCC/C(C)=C/CC/C(C)=C/CC/C(C)=C/CC1=C(C)C(=O)c2ccccc2C1=O [vitamin K2 MK4]
- functional maturation status of the hepatocytes (urea synthesis) (hPSC-Heps spheroids): increased the functional maturation status

Compound: CC1=C(C/C=C(\C)CCC[C@H](C)CCC[C@H](C)CCCC(C)C)C(=O)c2ccccc2C1=O [vitamin K1]
- functional maturation status of the hepatocytes (urea synthesis) (hPSC-Heps spheroids): increased the functional maturation status
- ammonia detoxification (hPSC-Heps spheroids): more effective at detoxifying ammonia
- ammonia detoxification with excess arginine (hPSC-Heps spheroids): detoxified ammonia even faster

Compound: CC(C)=CCC/C(C)=C/CC/C(C)=C/CC/C(C)=C/CC1=C(C)C(=O)c2ccccc2C1=O [vitamin K2]
- ammonia detoxification (hPSC-Heps spheroids): more effective at detoxifying ammonia
- ammonia detoxification with excess arginine (hPSC-Heps spheroids): detoxified ammonia even faster

Compound: CC(C)=CCC/C(C)=C/CC/C(C)=C/CC/C(C)=C/CC/C(C)=C/CC/C(C)=C/CC/C(C)=C/CC1=C(C)C(=O)c2ccccc2C1=O [vitamin K2 MK7]
- functional maturation status of the hepatocytes (urea synthesis) (hPSC-Heps spheroids): increased the functional maturation status
